Reference: article PMC6934184, “Selective DNA-PKcs inhibition extends the therapeutic index of localized radiotherapy and chemotherapy” (The Journal of Clinical Investigation, 2019)

Target: T1, TLK1 (Homo sapiens, UniProt Q9UKI8)
T1 construct: purchased Thermo Fisher Scientific (Life Technologies) SelectScreen
Assay: SelectScreen LanthaScreen
Type: binding
Settings: read-out: % displacement
How it was run: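 Percent values come from Thermo SelectScreen profiling of NU5455, combining activity and binding assays. CSF1R was run in Z'LYTE format at Km app ATP, and CAMK1 in Adapta format with ATP listed at 10.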

T1 sequence (Q9UKI8 whole entry): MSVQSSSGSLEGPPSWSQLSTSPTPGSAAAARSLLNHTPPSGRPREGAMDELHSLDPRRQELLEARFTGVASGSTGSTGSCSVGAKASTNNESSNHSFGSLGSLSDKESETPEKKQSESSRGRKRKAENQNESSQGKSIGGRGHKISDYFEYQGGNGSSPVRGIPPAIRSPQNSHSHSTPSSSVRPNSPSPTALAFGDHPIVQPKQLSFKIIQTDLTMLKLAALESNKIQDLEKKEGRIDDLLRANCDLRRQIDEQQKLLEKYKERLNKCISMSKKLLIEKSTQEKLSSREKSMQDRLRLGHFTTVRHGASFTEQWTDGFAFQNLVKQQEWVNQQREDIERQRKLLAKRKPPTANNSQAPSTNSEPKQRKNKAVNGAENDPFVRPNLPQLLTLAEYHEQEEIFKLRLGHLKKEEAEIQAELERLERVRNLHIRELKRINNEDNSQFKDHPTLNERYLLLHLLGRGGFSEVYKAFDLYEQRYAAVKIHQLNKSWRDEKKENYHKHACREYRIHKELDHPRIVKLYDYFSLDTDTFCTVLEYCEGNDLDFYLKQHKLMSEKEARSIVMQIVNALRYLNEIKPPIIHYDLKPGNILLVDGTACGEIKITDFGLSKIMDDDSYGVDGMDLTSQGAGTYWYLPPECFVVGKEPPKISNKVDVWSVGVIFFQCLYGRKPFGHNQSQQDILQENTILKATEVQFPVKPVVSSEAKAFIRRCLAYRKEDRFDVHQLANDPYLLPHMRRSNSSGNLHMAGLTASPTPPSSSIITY

Q: `CN(C(=O)CN1CCOCC1)c1ccc2sc3c(-c4cccc5c(=O)cc(N6CC7CCC(C6)O7)oc45)cccc3c2c1` [NU5455] was tested. Which inhibition at 1 µM did it give?
A: -0.8%
